# From patent US7829118B1, “Modified hyaluronic acid polymer compositions and related methods” (Carbylan Biosurgery, Inc., priority 2009, dated 2010)
# Values joined by “and” are separate entries in the source; they are usually repeats but may differ in a detail not shown here. Identical values can stand only once.
# System: Femoral Cartilage (medial femoral condyle) of goat stifle joint
# Assay: Modified Mankin scoring of femoral cartilage after intra-articular injection in goats (Example 34)
# Format: in vivo
# Conditions: for Total Mankin Score / Mankin Score: Tide Mark Integrity / Mankin Score: Cells / Mankin Score: Safranin-O Stain / Mankin Score: Structure: RFC
# Procedure: A lightly crosslinked hydrogel prepared by reaction of vinyl-sulfone-modified hyaluronic acid with PEG-dithiol (HA-VS-PEG-(SH)2), containing the corticosteroid, triamcinolone acetonide, was injected into the intraarticular space of the stifle joint of female goats. Morphological, synovial fluid and histological examinations were conducted to evaluate local and systemic effects of such injections. Details of the study are provided below.
# All test materials were stored at room temperature prior to use. For each Test or Control Material, a 1.5 ml dosage was prepared for each individual intra-articular injection.
# Study design was as follows.
# The basic procedure for injection was identical for all subjects. All injections were performed under strict asepsis. The animals were anesthetized with an intravenous injection of Diazepam (0.1-0.5 mg/kg) and Ketamine (4.4-7.5 mg/kg) to effect. Each knee was physically examined for drawer, range of motion, swelling, temperature, crepitus, patella tracking, and valgus/varus abnormalities
# All injections were conducted utilizing routine aseptic techniques. The left and right stifles were prepared for injection by clipping the areas, then cleansing them with chlorohexidine scrub. The animal was placed in dorsal recumbency. The right stifle was cleansed with chlorohexidine scrub alternating with 70% isopropyl alcohol three times and painted with iodine solution.
# A standard technique was used to inject each stifle joint. A 2-inch by 21gauge sized sterile needle was introduced into the intra-articular space via an anteromedial approach. The lateral intercondylar notch wall of the medial femoral condyle was felt and the needle backed slightly off. 1.5 ml of the appropriate Test Material was injected into the right joint. The injection needle was removed and pressure was maintained on the injection site. The injected stifle joint was then cycled 20-times through a full range of motion. Immediately following this, the left stifle joint was cleansed with chlorohexidine scrub alternating with 70% isopropyl alcohol three times and painted with iodine solution and 1.5 ml of the Control Material was injected into the left stifle joint in a similar manner as described above for the right stifle. The injection needle was removed and pressure maintained on the injection site. The injected stifle joint was then cycled 20-times through a full range of motion.
# Necropsy: Animals were humanely sacrificed at either 14 days or 28 days day post initial injection with an intravenous injection consisting of Diazepam 0.22 mg/kg and Ketamine 10 mg/kg for induction of general anesthesia. Following this, the anesthetized animals were given an IV overdose of concentrated potassium chloride (KCl) until the cardiac arrest had been verified.
# Immediately after dissection and following gross joint surface evaluation a sagital section of each joint was cut through the medial femoral condyle (MFC). These sections were placed individually in 10% neutral buffered formalin. The fixed tissue was shipped by overnight carrier to Premier Laboratories for processing. The right and left MFC sections were processed using standard histological techniques and stained with hematoxylin and eosin (H&E) and Safranin-O (SAF-O) with a fast green counter stain. The slides from the MFC sections were evaluated by the Mankin Scoring System for osteoarthritis as described in Table 12.
# [1] = Group 3, 2mg/ml, 14 day evaluation, MEAN
# [2] = Group 7, 2mg/ml, 28 day evaluation, MEAN
# [3] = Group 4, 8mg/ml, 14 day evaluation, MEAN
# [4] = Group 8, 8mg/ml, 28 day evaluation, MEAN, animal that died prematurely not included
smiles,measurement,setting,value
"CC1(C)O[C@@H]2C[C@H]3[C@@H]4CCC5=CC(=O)C=C[C@]5(C)[C@@]4(F)[C@@H](O)C[C@]3(C)[C@]2(C(=O)CO)O1 [Triamcinolone Acetonide 2mg/ml, triamcinolone acetonide]",Total Mankin Score,"Group 3, 2mg/ml, 14 day evaluation, right stifle 1.5 ml intra-articular, individual goats, maximal 14, normal 0",4.0 and 7.0 and 8.0
same,Mankin Score: Tide Mark Integrity,"Group 3, 2mg/ml, 14 day evaluation, right stifle 1.5 ml intra-articular, individual goats, score 0-1",0.0
same,Mankin Score: Cells,"Group 3, 2mg/ml, 14 day evaluation, right stifle 1.5 ml intra-articular, individual goats, score 0-3",0.0 and 1.0 (2×)
same,Mankin Score: Safranin-O Stain,"Group 3, 2mg/ml, 14 day evaluation, right stifle 1.5 ml intra-articular, individual goats, score 0-4",4.0 and 2.0 and 3.0
same,Mankin Score: Structure,"Group 3, 2mg/ml, 14 day evaluation, right stifle 1.5 ml intra-articular, individual goats, score 0-6",0.0 and 4.0 (2×)
same,Mankin Score: Cells,[1],0.7
same,Mankin Score: Safranin-O Stain,[1],3.0
same,Mankin Score: Structure,[1],2.7
same,Mankin Score: Tide Mark Integrity,[1],0.0
same,Total Mankin Score,[1],6.3
same,Total Mankin Score,"Group 7, 2mg/ml, 28 day evaluation, right stifle 1.5 ml intra-articular, individual goats, maximal 14, normal 0",6.0 and 9.0 and 10.0
same,Mankin Score: Tide Mark Integrity,"Group 7, 2mg/ml, 28 day evaluation, right stifle 1.5 ml intra-articular, individual goats, score 0-1",0.0
same,Mankin Score: Cells,"Group 7, 2mg/ml, 28 day evaluation, right stifle 1.5 ml intra-articular, individual goats, score 0-3",2.0 (2×) and 3.0
same,Mankin Score: Safranin-O Stain,"Group 7, 2mg/ml, 28 day evaluation, right stifle 1.5 ml intra-articular, individual goats, score 0-4",4.0 and 3.0 (2×)
same,Mankin Score: Structure,"Group 7, 2mg/ml, 28 day evaluation, right stifle 1.5 ml intra-articular, individual goats, score 0-6",0.0 and 4.0 (2×)
same,Mankin Score: Cells,[2],2.3
same,Mankin Score: Safranin-O Stain,[2],3.3
same,Mankin Score: Structure,[2],2.7
same,Mankin Score: Tide Mark Integrity,[2],0.0
same,Total Mankin Score,[2],8.3
"CC1(C)O[C@@H]2C[C@H]3[C@@H]4CCC5=CC(=O)C=C[C@]5(C)[C@@]4(F)[C@@H](O)C[C@]3(C)[C@]2(C(=O)CO)O1 [Triamcinolone Acetonide 8mg/ml, triamcinolone acetonide]",Total Mankin Score,"Group 4, 8mg/ml, 14 day evaluation, right stifle 1.5 ml intra-articular, individual goats, maximal 14, normal 0",9.0 and 3.0 and 4.0
same,Mankin Score: Tide Mark Integrity,"Group 4, 8mg/ml, 14 day evaluation, right stifle 1.5 ml intra-articular, individual goats, score 0-1",0.0
same,Mankin Score: Cells,"Group 4, 8mg/ml, 14 day evaluation, right stifle 1.5 ml intra-articular, individual goats, score 0-3",1.0 and 0.0 (2×)
same,Mankin Score: Safranin-O Stain,"Group 4, 8mg/ml, 14 day evaluation, right stifle 1.5 ml intra-articular, individual goats, score 0-4",3.0 (2×) and 4.0
same,Mankin Score: Structure,"Group 4, 8mg/ml, 14 day evaluation, right stifle 1.5 ml intra-articular, individual goats, score 0-6",5.0 and 0.0 (2×)
same,Mankin Score: Cells,[3],0.3
same,Mankin Score: Safranin-O Stain,[3],3.3
same,Mankin Score: Structure,[3],1.7
same,Mankin Score: Tide Mark Integrity,[3],0.0
same,Total Mankin Score,[3],5.3
same,Total Mankin Score,"Group 8, 8mg/ml, 28 day evaluation, right stifle 1.5 ml intra-articular, individual goats (3588 RFC* died prematurely, 19 days), maximal 14, normal 0",12.0 and 6.0
same,Total Mankin Score,"Group 8, 8mg/ml, 28 day evaluation, right stifle 1.5 ml intra-articular, individual goats (3588 RFC* died prematurely, 19 days), maximal 14, normal 0, listed as Triamcinolone Acetonide 8mg/m1",10.0
same,Mankin Score: Tide Mark Integrity,"Group 8, 8mg/ml, 28 day evaluation, right stifle 1.5 ml intra-articular, individual goats (3588 RFC* died prematurely, 19 days), score 0-1",0.0
same,Mankin Score: Cells,"Group 8, 8mg/ml, 28 day evaluation, right stifle 1.5 ml intra-articular, individual goats (3588 RFC* died prematurely, 19 days), score 0-3",3.0 and 1.0
same,Mankin Score: Cells,"Group 8, 8mg/ml, 28 day evaluation, right stifle 1.5 ml intra-articular, individual goats (3588 RFC* died prematurely, 19 days), score 0-3, listed as Triamcinolone Acetonide 8mg/m1",3.0
same,Mankin Score: Safranin-O Stain,"Group 8, 8mg/ml, 28 day evaluation, right stifle 1.5 ml intra-articular, individual goats (3588 RFC* died prematurely, 19 days), score 0-4",4.0
same,Mankin Score: Safranin-O Stain,"Group 8, 8mg/ml, 28 day evaluation, right stifle 1.5 ml intra-articular, individual goats (3588 RFC* died prematurely, 19 days), score 0-4, listed as Triamcinolone Acetonide 8mg/m1",3.0
same,Mankin Score: Structure,"Group 8, 8mg/ml, 28 day evaluation, right stifle 1.5 ml intra-articular, individual goats (3588 RFC* died prematurely, 19 days), score 0-6",5.0 and 1.0
same,Mankin Score: Structure,"Group 8, 8mg/ml, 28 day evaluation, right stifle 1.5 ml intra-articular, individual goats (3588 RFC* died prematurely, 19 days), score 0-6, listed as Triamcinolone Acetonide 8mg/m1",4.0
same,Mankin Score: Cells,[4],2.0
same,Mankin Score: Safranin-O Stain,[4],4.0
same,Mankin Score: Structure,[4],3.0
same,Mankin Score: Tide Mark Integrity,[4],0.0
same,Total Mankin Score,[4],9.0
"CC1(C)O[C@@H]2C[C@H]3[C@@H]4CCC5=CC(=O)C=C[C@]5(C)[C@@]4(F)[C@@H](O)C[C@]3(C)[C@]2(C(=O)CO)O1 [Triamcinolone Acetonide, triamcinolone acetonide]",loss of Safranin O staining intensity portion of the modified Mankin score compared to either Groups 5 or 6,"Day 28, Groups 7 and 8 (2 and 8 mg/ml)",mild increase
same,change in modified Mankin scores from Day 14 to Day 28,"goat stifle, 1.5 ml intra-articular",increase
